What was measured:
[1] = Cytotoxicity against human HepG2(2.2.15) cells; assay type: cell-based
Hepatitis B virus [2] = assay: Antiviral activity against HBV assessed as inhibition of viral surface antigen secretion; assay type: functional, organism-based
Hepatitis B virus [3] = assay: Antiviral activity against HBV assessed as inhibition of viral early antigen secretion; assay type: functional, organism-based
[4] = Selectivity index, ratio of CC50 for human HepG2(2.2.15) cells to IC50 for HBV surface antigen secretion; assay type: functional

Compound	IC50 (Hepatitis B virus [2]) [µM]	IC50 (Hepatitis B virus [3]) [µM]	CC50 [1] [µM]	Ratio CC50/IC50 [4]
C/C=C/C=C/C(=O)O[C@@H](C[C@@H](C)C1=C2C[C@H](OC(=O)/C=C/C=C/C)[C@H]3[C@@]4(C)CCC(=O)C(C)(C)[C@@H]4CC[C@]3(C)[C@@]2(C)CC1)[C@@H](OC(=O)/C=C/C=C/C)C(C)(C)O	> 900	> 900	> 900	–
C[C@H](C[C@H](OC(=O)c1ccc(Cl)cc1Cl)[C@@H](OC(=O)c1ccc(Cl)cc1Cl)C(C)(C)O)C1=C2C[C@H](OC(=O)c3ccc(Cl)cc3Cl)[C@H]3[C@@]4(C)CCC(=O)C(C)(C)[C@@H]4CC[C@]3(C)[C@@]2(C)CC1	> 1200	> 1200	> 1200	–
C=C(C)[C@H](OC(=O)COC(C)=O)[C@H](C[C@@H](C)C1=C2C[C@H](OC(=O)COC(C)=O)[C@H]3[C@@]4(C)CCC(=O)C(C)(C)[C@@H]4CC[C@]3(C)[C@@]2(C)CC1)OC(=O)COC(C)=O	< 32	< 32	< 30	–
C[C@H](C[C@H](OC(=O)/C=C/c1ccccc1Cl)[C@@H](OC(=O)/C=C/c1ccccc1Cl)C(C)(C)O)C1=C2C[C@H](OC(=O)/C=C/c3ccccc3Cl)[C@H]3[C@@]4(C)CCC(=O)C(C)(C)[C@@H]4CC[C@]3(C)[C@@]2(C)CC1	950	> 1300	> 1300	>1.3
CCCCCCCC(=O)O[C@@H](C[C@@H](C)C1=C2C[C@H](OC(=O)CCCCCCC)[C@H]3[C@@]4(C)CCC(=O)C(C)(C)[C@@H]4CC[C@]3(C)[C@@]2(C)CC1)[C@@H](OC(=O)CCCCCCC)C(C)(C)O	> 600	> 600	> 600	–
C[C@H](C[C@H](OC(=O)c1ccc(Cl)cc1)[C@@H](OC(=O)c1ccc(Cl)cc1)C(C)(C)O)C1=C2C[C@H](OC(=O)c3ccc(Cl)cc3)[C@H]3[C@@]4(C)CCC(=O)C(C)(C)[C@@H]4CC[C@]3(C)[C@@]2(C)CC1	> 900	> 900	> 900	–
COCC(=O)O[C@@H](C[C@@H](C)[C@]12CC[C@@]3(C)[C@@]1(C[C@H](OC(=O)COC)[C@H]1[C@@]4(C)CCC(=O)C(C)(C)[C@@H]4CC[C@@]13C)O2)[C@@H](OC(=O)COC)C(C)(C)OC(=O)COC	110	> 1600	> 800	>7.3
C[C@H](C[C@H](OC(=O)Cc1ccc([N+](=O)[O-])cc1)[C@@H](OC(=O)Cc1ccc([N+](=O)[O-])cc1)C(C)(C)O)C1=C2C[C@H](OC(=O)Cc3ccc([N+](=O)[O-])cc3)[C@H]3[C@@]4(C)CCC(=O)C(C)(C)[C@@H]4CC[C@]3(C)[C@@]2(C)CC1	> 1000	> 1000	> 1000	–
C[C@H](C[C@H](OC(=O)COc1ccccc1)[C@@H](OC(=O)COc1ccccc1)C(C)(C)O)C1=C2C[C@H](OC(=O)COc3ccccc3)[C@H]3[C@@]4(C)CCC(=O)C(C)(C)[C@@H]4CC[C@]3(C)[C@@]2(C)CC1	> 1300	> 1300	> 1300	–
CC(C)CCC(=O)O[C@@H](C[C@@H](C)C1=C2C[C@H](OC(=O)CCC(C)C)[C@H]3[C@@]4(C)CCC(=O)C(C)(C)[C@@H]4CC[C@]3(C)[C@@]2(C)CC1)[C@@H](OC(=O)CCC(C)C)C(C)(C)O	> 900	> 900	> 900	–
C=C(C)[C@H](OC(=O)CC(C)C)[C@H](C[C@@H](C)C1=C2C[C@H](OC(=O)CC(C)C)[C@H]3[C@@]4(C)CCC(=O)C(C)(C)[C@@H]4CC[C@]3(C)[C@@]2(C)CC1)OC(=O)CC(C)C	> 1200	> 1200	> 1200	–
C=C(C)[C@H](OC(=O)CCCC)[C@H](C[C@@H](C)C1=C2C[C@H](OC(=O)CCCC)[C@H]3[C@@]4(C)CCC(=O)C(C)(C)[C@@H]4CC[C@]3(C)[C@@]2(C)CC1)OC(=O)CCCC	> 920	> 920	> 920	–
C[C@H](C[C@H](OC(=O)c1ccccc1I)[C@@H](OC(=O)c1ccccc1I)C(C)(C)O)C1=C2C[C@H](OC(=O)c3ccccc3I)[C@H]3[C@@]4(C)CCC(=O)C(C)(C)[C@@H]4CC[C@]3(C)[C@@]2(C)CC1	> 1500	> 1500	> 1500	–
CCC(CC)C(=O)O[C@@H](C[C@@H](C)C1=C2C[C@H](OC(=O)C(CC)CC)[C@H]3[C@@]4(C)CCC(=O)C(C)(C)[C@@H]4CC[C@]3(C)[C@@]2(C)CC1)[C@@H](OC(=O)C(CC)CC)C(C)(C)O	> 1100	> 1100	> 1100	–
C[C@H](C[C@H](OC(=O)CCOc1ccccc1)[C@@H](OC(=O)CCOc1ccccc1)C(C)(C)O)C1=C2C[C@H](OC(=O)CCOc3ccccc3)[C@H]3[C@@]4(C)CCC(=O)C(C)(C)[C@@H]4CC[C@]3(C)[C@@]2(C)CC1	> 950	> 950	> 950	–

Further lines, with some results ahead:

IC50 (Hepatitis B virus [2]) [µM]	IC50 (Hepatitis B virus [3]) [µM]	Compound	CC50 [1] [µM]	Ratio CC50/IC50 [4]
> 850	> 850	C/C=C/C(=O)O[C@@H](C[C@@H](C)C1=C2C[C@H](OC(=O)/C=C/C)[C@H]3[C@@]4(C)CCC(=O)C(C)(C)[C@@H]4CC[C@]3(C)[C@@]2(C)CC1)[C@@H](OC(=O)/C=C/C)C(C)(C)O	> 850	–
> 1200	> 1200	CC(C)CC(=O)O[C@@H](C[C@@H](C)C1=C2C[C@H](OC(=O)CC(C)C)[C@H]3[C@@]4(C)CCC(=O)C(C)(C)[C@@H]4CC[C@]3(C)[C@@]2(C)CC1)[C@@H](OC(=O)CC(C)C)C(C)(C)O	> 1200	–
140	> 400	COCC(=O)O[C@@H](C[C@@H](C)C1=C2C[C@H](OC(=O)COC)[C@H]3[C@@]4(C)CCC(=O)C(C)(C)[C@@H]4CC[C@]3(C)[C@@]2(C)CC1)[C@@H](OC(=O)COC)C(C)(C)O	400	2.9
> 1300	> 1300	CCCCC(=O)O[C@@H](C[C@@H](C)C1=C2C[C@H](OC(=O)CCCC)[C@H]3[C@@]4(C)CCC(=O)C(C)(C)[C@@H]4CC[C@]3(C)[C@@]2(C)CC1)[C@@H](OC(=O)CCCC)C(C)(C)O	> 1300	–
> 1200	> 1200	C[C@H](C[C@H](OC(=O)CC(C)(C)C)[C@@H](OC(=O)CC(C)(C)C)C(C)(C)O)C1=C2C[C@H](OC(=O)CC(C)(C)C)[C@H]3[C@@]4(C)CCC(=O)C(C)(C)[C@@H]4CC[C@]3(C)[C@@]2(C)CC1	> 1200	–
> 800	> 800	C[C@H](C[C@H](OC(=O)C1CCCCC1)[C@@H](OC(=O)C1CCCCC1)C(C)(C)O)C1=C2C[C@H](OC(=O)C3CCCCC3)[C@H]3[C@@]4(C)CCC(=O)C(C)(C)[C@@H]4CC[C@]3(C)[C@@]2(C)CC1	> 800	–
> 810	> 810	C[C@H](C[C@H](OC(=O)CCC1CCCCC1)[C@@H](OC(=O)CCC1CCCCC1)C(C)(C)O)C1=C2C[C@H](OC(=O)CCC3CCCCC3)[C@H]3[C@@]4(C)CCC(=O)C(C)(C)[C@@H]4CC[C@]3(C)[C@@]2(C)CC1	> 810	–
> 1000	> 1000	C[C@H](C[C@H](OC(=O)C1CC1)[C@@H](OC(=O)C1CC1)C(C)(C)O)C1=C2C[C@H](OC(=O)C3CC3)[C@H]3[C@@]4(C)CCC(=O)C(C)(C)[C@@H]4CC[C@]3(C)[C@@]2(C)CC1	> 1000	–
> 1100	> 1100	C[C@H](C[C@H](OC(=O)C1CCCC1)[C@@H](OC(=O)C1CCCC1)C(C)(C)O)C1=C2C[C@H](OC(=O)C3CCCC3)[C@H]3[C@@]4(C)CCC(=O)C(C)(C)[C@@H]4CC[C@]3(C)[C@@]2(C)CC1	> 1100	–

Source: ChEMBL document CHEMBL1153983, “Anti-HBV agents. Part 2: synthesis and in vitro anti-hepatitis B virus activities of alisol A derivatives” (Bioorg Med Chem Lett, 2009)
